In one data set the target is T1, Isocitrate lyase (Mycobacterium tuberculosis, UniProt P9WKK7).
T1 sequence (P9WKK7 whole entry): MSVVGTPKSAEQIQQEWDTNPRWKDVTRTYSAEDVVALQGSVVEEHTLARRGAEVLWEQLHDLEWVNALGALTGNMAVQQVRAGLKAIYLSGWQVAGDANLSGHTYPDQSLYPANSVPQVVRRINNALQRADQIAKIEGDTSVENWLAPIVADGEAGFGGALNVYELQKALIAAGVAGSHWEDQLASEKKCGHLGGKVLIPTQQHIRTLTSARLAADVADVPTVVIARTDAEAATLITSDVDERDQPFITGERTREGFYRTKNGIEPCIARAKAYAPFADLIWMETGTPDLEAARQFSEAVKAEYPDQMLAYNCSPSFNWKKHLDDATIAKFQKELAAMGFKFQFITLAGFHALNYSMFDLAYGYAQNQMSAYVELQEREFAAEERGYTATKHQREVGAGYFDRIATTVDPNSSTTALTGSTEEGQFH
Nature of the data set: Inhibition of recombinant Mycobacterium tuberculosis ICL expressed in Escherichia coli BL21 (DE3) cells using DL-isocitric acid trisodium salt hydrate as substrate after 30 mins.

The test system of data set [1] is Mycobacterium avium. Kind of data set: Antimycobacterial activity against Mycobacterium avium 330/88 after 14 days. The format is functional. The following applies: 330/88, 336 h.
Data set [2] has as its system Mycobacterium tuberculosis. The format is functional. The following applies: H37Rv 331/88, 504 h.
Data set [3] has as its system Mycobacterium tuberculosis. The format is functional. The following applies: H37Rv 331/88, 336 h.
Data set [4] deals with Mycobacterium avium. Kind of data set: Antimycobacterial activity against Mycobacterium avium 330/88 after 21 days. The following applies: 330/88, 504 h. The format is functional.
In data set [5] the test system is Mycobacterium kansasii. Kind of data set: Antimycobacterial activity against Mycobacterium kansasii 235/80 after 7 days. The format is functional. The following applies: 235/80, 168 h.
Data set [6] concerns Mycobacterium kansasii. Kind of data set: Antimycobacterial activity against Mycobacterium kansasii 235/80 after 14 days. The format is functional. The following applies: 235/80, 336 h.
In data set [7] the test system is Mycobacterium kansasii. Nature of the data set: Antimycobacterial activity against Mycobacterium kansasii 235/80 after 21 days. The format is functional. The following applies: 235/80, 504 h.
The subject of data set [8] is Mycobacterium kansasii. Kind of data set: Antimycobacterial activity against Mycobacterium kansasii 6509/96 after 7 days. The format is functional. The following applies: 6509/96, 168 h.
Data set [9] concerns Mycobacterium kansasii. Nature of the data set: Antimycobacterial activity against Mycobacterium kansasii 6509/96 after 14 days. The format is functional. The following applies: 6509/96, 336 h.
In data set [10] the test system is Mycobacterium kansasii. Kind of data set: Antimycobacterial activity against Mycobacterium kansasii 6509/96 after 21 days. The following applies: 6509/96, 504 h. The format is functional.
In data set [11] the test system is Mycobacterium tuberculosis. The format is functional, H37Rv 331/88. Further details: reference not given here.
Data set [12] relates to Mycobacterium kansasii. Nature of the data set: Potency index, ratio of p-aminosalicylic acid MIC to compound MIC for antimycobacterial activity against Mycobacterium kansasii 235/80. The format is functional.
Data set [13] has as its system Mycobacterium kansasii. Nature of the data set: Potency index, ratio of p-aminosalicylic acid MIC to compound MIC for antimycobacterial activity against Mycobacterium kansasii 6509/96. The format is functional.
Data set [14] has as its system Mycobacterium tuberculosis. Nature of the data set: Antimycobacterial activity against Mycobacterium tuberculosis H37Ra ITM-M006710 after 48 hr by resazurin dye based microdilution method. The format is functional. The following applies: H37Ra ITM-M006710, 48 h.
In the next data set the test system is Mycolicibacterium aurum. Kind of data set: Antimycobacterial activity against Mycobacterium aurum DSM 43999 after 72 hr by resazurin dye based microdilution method. The format is functional. The following applies: DSM 43999, 72 h.
The test system of data set [15] is Mycolicibacterium smegmatis. Kind of data set: Antimycobacterial activity against Mycobacterium smegmatis DSM 43465 after 120 hr by resazurin dye based microdilution method. The format is functional. The following applies: DSM 43465, 120 h.
Data set [16] relates to Mycobacterium tuberculosis H37Rv. Nature of the data set: Inhibition of recombinant Mycobacterium tuberculosis H37Rv ICL1 expressed in Escherichia coli BL21 (DE3) cells at 10 uM using (+)-potassium Ds-threo-isocitrate as substrate by glyoxylate phenyl hydrazone formation assay relative to control.
In data set [17] the test system is HepG2. Nature of the data set: Cytotoxicity against human HepG2 cells assessed as reduction in cell viability after overnight incubation by MTT assay. The format is cell-based.
The subject of data set [18] is HepG2. Kind of data set: Cytostatic activity against human HepG2 cells preincubated for overnight in serum free medium followed by compound wash out and further incubated for 72 hrs in presence of serum by MTT assay. The format is ADME, cell-based.
In data set [19] the test system is Mycobacterium tuberculosis. Nature of the data set: Antimycobacterial activity against XDR Mycobacterium tuberculosis Praha 131 after 14 days. The format is functional. The following applies: Praha 131, 336 h.
For data set [20], the system named is Mycobacterium tuberculosis. Nature of the data set: Antimycobacterial activity against XDR Mycobacterium tuberculosis Praha 131 after 21 days. The format is functional. The following applies: Praha 131, 504 h.
A short description of the next data set: in vitro. The following applies: human, HepG2 cells.
Data set [21] concerns Mycobacterium avium. Nature of the data set: Potency index, ratio of p-aminosalicylic acid MIC to compound MIC for antimycobacterial activity against Mycobacterium avium 330/88. The format is functional.

The structures appear in SMILES notation. Converted amounts (≈) assume the structure as drawn.

Description for in vitro: Selectivity index, ratio of IC50 for human HepG2 cells to MIC for antimycobacterial activity against Mycobacterium tuberculosis H37Rv

Consider `COC(=O)/C=C/C(=O)c1ccc(OC)cc1`, for which, at Isocitrate lyase, the IC50 worked out at 30.9 µM.

Regarding `O=C(NC1CCCCC1)Oc1ccc(Cl)cc1C(=O)Nc1ccc(C(F)(F)F)cc1`, the MIC against Mycobacterium avium [1] is 8 µM (≈ 3.53 µg/mL); in data set [2] it was 1 µM (≈ 0.441 µg/mL); in [3], 1 µM (≈ 0.441 µg/mL); with Mycobacterium avium [4], 8 µM (≈ 3.53 µg/mL); with Mycobacterium kansasii [5], 4 µM (≈ 1.76 µg/mL); with Mycobacterium kansasii [6], 4 µM (≈ 1.76 µg/mL). The MIC with Mycobacterium kansasii [7] is 8 µM (≈ 3.53 µg/mL); in the data set with Mycobacterium kansasii [8], 2 µM (≈ 0.882 µg/mL); against Mycobacterium kansasii [9], 4 µM (≈ 1.76 µg/mL); against Mycobacterium kansasii [10], 4 µM (≈ 1.76 µg/mL); in data set [14], no more than 0.88 µM; against Mycolicibacterium aurum, no more than 0.88 µM. For the same compound, the MIC in data set [15] was no more than 0.88 µM; in [19], 0.5 µM (≈ 0.22 µg/mL); in data set [20], 1 µM (≈ 0.441 µg/mL). Moreover, the Ratio in data set [11] is given as greater than 125; in the data set on Mycobacterium kansasii [12] it was greater than 250; in the data set on Mycobacterium kansasii [13] it was greater than 250. For the same compound, the inhibition in data set [16] stood at 14%. Moreover, the IC50 in the data set with HepG2 [17] was greater than 125 µM; with HepG2 [18], 0.75 µM. Further, in the data set “in vitro”, the selectivity ratio is greater than 125.

On to `O=C(NCCc1ccccc1)Oc1ccc(Cl)cc1C(=O)Nc1ccc(C(F)(F)F)cc1`, for which the MIC with Mycobacterium avium [1] is 8 µM (≈ 3.7 µg/mL); in [2] it was 1 µM (≈ 0.463 µg/mL); in data set [3] it was no more than 0.5 µM; against Mycobacterium avium [4], 8 µM (≈ 3.7 µg/mL); in the data set with Mycobacterium kansasii [5], 4 µM (≈ 1.85 µg/mL); in the data set with Mycobacterium kansasii [6], 4 µM (≈ 1.85 µg/mL). The MIC is 8 µM (≈ 3.7 µg/mL) in the data set with Mycobacterium kansasii [7]; 2 µM (≈ 0.926 µg/mL) against Mycobacterium kansasii [8]; 4 µM (≈ 1.85 µg/mL) against Mycobacterium kansasii [9]; 4 µM (≈ 1.85 µg/mL) in the data set on Mycobacterium kansasii [10]; 0.84 to 1.69 µM (≈ 0.389 to 0.782 µg/mL) in data set [14]; no more than 0.84 µM in the data set on Mycolicibacterium aurum. Further, the figures for the MIC in [15], in [19] and in data set [20] were no more than 0.84 µM, 2 µM (≈ 0.926 µg/mL) and 2 µM (≈ 0.926 µg/mL), respectively. For the same compound, the figures for the Ratio (in data set [11]; in the data set on Mycobacterium kansasii [12]; with Mycobacterium kansasii [13]) were greater than 125, greater than 250 and greater than 250, respectively. In addition, in [16], the inhibition came out at 11%. In addition, the IC50 is greater than 125 µM in the data set on HepG2 [17] and 1 µM in the data set on HepG2 [18]. Also, the selectivity ratio in the data set “in vitro” is greater than 125.

As for `O=C(NC12CC3CC(CC(C3)C1)C2)Oc1ccc(Cl)cc1C(=O)Nc1ccc(C(F)(F)F)cc1`, the MIC against Mycobacterium avium [1] was 4 µM (≈ 1.97 µg/mL); in data set [2], 1 µM (≈ 0.493 µg/mL); in [3] it was no more than 0.5 µM; in the data set with Mycobacterium avium [4], 4 µM (≈ 1.97 µg/mL); with Mycobacterium kansasii [5] it was 4 µM (≈ 1.97 µg/mL); in the data set on Mycobacterium kansasii [6], 4 µM (≈ 1.97 µg/mL). The MIC against Mycobacterium kansasii [7] was 4 µM (≈ 1.97 µg/mL); with Mycobacterium kansasii [8], 4 µM (≈ 1.97 µg/mL); in the data set with Mycobacterium kansasii [9], 4 µM (≈ 1.97 µg/mL); in the data set with Mycobacterium kansasii [10], 4 µM (≈ 1.97 µg/mL); in [14] it was 2 µM (≈ 0.986 µg/mL); in the data set with Mycolicibacterium aurum, no more than 0.79 µM. For the same compound, the MIC in [15] is 4 µM (≈ 1.97 µg/mL); in data set [19], 1 µM (≈ 0.493 µg/mL); in data set [20], 1 µM (≈ 0.493 µg/mL). Besides, the Ratio is greater than 125 in [11], greater than 31 with Mycobacterium avium [21], greater than 250 with Mycobacterium kansasii [12] and greater than 250 in the data set on Mycobacterium kansasii [13]. For the same compound, the inhibition in [16] stood at 15%. For the same compound, the IC50 was greater than 125 µM with HepG2 [17] and 4.85 µM in the data set on HepG2 [18]. Moreover, the selectivity ratio in the data set “in vitro” was greater than 125.

These data come from ChEMBL document CHEMBL4406824, “Phenolic N-monosubstituted carbamates: Antitubercular and toxicity evaluation of multi-targeting compounds” (Eur J Med Chem, 2019).
